target: T1, δ-Selinene Synthase (ag4) (SEQ ID No. 20) (Abies grandis, UniProt O64404); experiment: Product profile of recombinant δ-selinene synthase in vitro (preparative assay, GLC-MS); assay type: biochemical; details: from [1-3H]farnesyl diphosphate; total ion current chromatogram
T1 construct: made in house; host or cells: E. coli XL1-Blue/pGAG4 or E. coli BL21(DE3)/pSBAG4
T1 sequence (O64404 1-581): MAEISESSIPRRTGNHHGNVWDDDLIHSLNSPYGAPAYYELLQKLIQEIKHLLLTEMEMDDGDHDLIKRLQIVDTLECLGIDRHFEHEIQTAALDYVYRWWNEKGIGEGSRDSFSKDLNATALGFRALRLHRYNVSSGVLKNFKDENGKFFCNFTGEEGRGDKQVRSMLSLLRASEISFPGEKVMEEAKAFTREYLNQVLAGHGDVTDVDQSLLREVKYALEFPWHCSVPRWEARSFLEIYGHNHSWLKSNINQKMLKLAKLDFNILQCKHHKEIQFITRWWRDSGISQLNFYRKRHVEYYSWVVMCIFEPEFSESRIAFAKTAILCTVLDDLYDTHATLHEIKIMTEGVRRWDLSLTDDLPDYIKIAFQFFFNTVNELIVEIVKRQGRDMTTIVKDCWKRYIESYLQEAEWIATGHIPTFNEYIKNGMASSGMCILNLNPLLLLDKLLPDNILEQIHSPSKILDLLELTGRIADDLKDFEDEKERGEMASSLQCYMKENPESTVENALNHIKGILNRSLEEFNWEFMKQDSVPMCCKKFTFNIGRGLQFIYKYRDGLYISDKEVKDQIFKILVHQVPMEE
Method: (§1) For preparative incubations, the assay was scaled to 5 ml containing the total protein extracted from 100 ml of bacterial culture and 30 μM [1-^3H]farnesyl diphosphate, and the incubation time was extended to 8 h. Aliquots of the olefin fraction and the fraction containing oxygenated metabolites (diethyl ether eluate) were evaluated by liquid scintillation counting, and were analyzed by radio-GLC (Croteau, R. & Cane. D. E. (1985) Methods Enzymol. 110, 383-405; Satterwhite, D. M. & Croteau, R. (1988) J. Chromatogr. 452, 61-73) using a Gow-Mac 550P chromatograph that was equipped with a 3.18 mm×3.66 m stainless steel column packed with 5% OV17 (50% phenyl:50% methylsiloxane) on 100/120 mesh Gas Chrom Q (Alltech) and programmed from 150° C. to 220° C. at 2° C./min with He as carrier. The elution of co-injected standards was monitored with the Gow-Mac thermal conductivity detector (250° C. and 150 mA) and the radioactivity signal was continuously monitored with a Nuclear Chicago Model 8731 gas proportional counter; output data were processed using Perkin-Elmer Turbochrom Software.
(§2) Expression of Sesquiterpene Synthase cDNAs AG4 (SEQ ID No:19) and AG5. (SEQ ID No:23) in E. coli. Both putative sesquiterpene cyclase cDNAs (SEQ ID Nos:19 and 23) were expressed in bacterial strains E. coli XL1-Blue/pGAG4, E. coli XL1-Blue/pGAG5, E. coli BL21(DE3)/pSBAG4, and E. coli BL21(DE3)/pSBAG5 as set forth in EXAMPLE 7. Bacteria were grown to A600=0.5 at 37° C. in 5 ml or 100 ml of LB medium supplemented with 100 μg ampicillin/ml or 30 μg kanamycin/ml as determined by the vector. Cultures were then induced by addition of 1 mM isopropyl-1-thio-β-D-galactopyranoside and grown for another 12 h at 20° C. Cells were harvested by centrifugation (2000×g, 10 min) and resuspended in either 1 ml or 5 ml sesquiterpene synthase assay buffer (EXAMPLE 2). Cells were disrupted by sonication (Braun-Sonic 2000 with microprobe at maximum power for 15 seconds at 0-4° C.) and the homogenates were cleared by centrifugation (18,000×g, 10 min). Preparative assays were employed to generate product for GLC-MS analysis, as set forth in EXAMPLE 2, with quantification of composition via the total ion current chromatogram.
Product Profile of Recombinant δ-Selinene Synthase (SEQ ID No:20) In Vitro.

| SMILES | sesquiterpene products of δ-selinene synthase, % [%] |
| --- | --- |
| CC1=CC[C@H]2[C@H]3[C@@H]1[C@]2(C)CC[C@H]3C(C)C [α-Copaene] | 0.1 |
| C=C1/C=C/[C@H](C(C)C)CC/C(C)=C/CC1 [Germacrene D] | 0.8 |
| CC(C)=C1C/C=C(\C)CC/C=C(\C)CC1 [Z-E-Germacrene B (tent.), Z,E-Germacrene B] | 1.3 |
| CC1=C[C@@H]2C(=C(C)CC[C@H]2C(C)C)CC1 [δ-Cadinene] | 1.4 |
| C=C(C)[C@@H]1CC[C@@]2(C)CCC=C(C)[C@@H]2C1 [α-Selinene] | 1.7 |
| C=C1CCCC2(C)CCC(C(C)C)=CC12 (stereo not drawn) [Sibirene] | 0.7 |
| CC1=CC2C(CC1)C(C)=CCC2C(C)C (stereo not drawn) [α-Amorphene] | 2.7 |
| CC1=CC[C@@H]2[C@H]3[C@H](C(C)C)CC[C@]2(C)[C@@H]13 [α-Ylangene] | 0.1 |
| CC(C)=C1C/C=C(\C)CC/C=C(\C)CC1 [E,E-Germacrene B] | 17.4 |
| CC1=CCCC2(C)CCC(=C(C)C)CC12 (stereo not drawn) [Seli-3,7(11)-diene] | 1.2 |
| CC1=C[C@@H]2[C@@H](CC1)C(C)=CC[C@H]2C(C)C [α-Cadinene] | 0.2 |
| C=C(C)[C@@H]1C/C=C(\C)CC/C=C(\C)CC1 [Germacrene A] | 6.7 |
| C/C1=C\CC/C(C)=C/CC(C)(C)/C=C/C1 [α-Humulene] | 0.7 |
| CC1=C[C@H]2C(=C(C)CC[C@H]2C(C)C)CC1 [δ-Amorphene] | 6.4 |
| C/C1=C\C=C(\C(C)C)CC/C(C)=C/CC1 [Germacrene C] | 3.4 |
| C=C(CCC=C(C)C)[C@@H]1CC=C(C)CC1 [β-Bisabolene] | 0.7 |
| CC1=C2C=C(C(C)C)CCC2(C)CCC1 (stereo not drawn) [δ-Selinene] | 25.3 |
| C=C(C)[C@@H]1CC[C@H](C)C2=C(C1)[C@@H](C)CC2 [α-Guiaene] | 0.2 |
| CC1=CCC(C(C)C)=C[C@@H]2[C@H](C)CC[C@H]12 [Guaia-6,9-diene] | 9.7 |
| C=C1CC/C=C(\C)CC[C@@H]2[C@@H]1CC2(C)C [β-Caryophyllene] | 1.5 |

target: T2, γ-Humulene Synthase (ag5) (SEQ ID No: 24) (Abies grandis, UniProt O64405); experiment: Product profile of recombinant γ-humulene synthase in vitro (preparative assay, GLC-MS); assay type: biochemical; details: from [1-3H]farnesyl diphosphate; total ion current chromatogram
T2 construct: For further subcloning of the amplified, full-length cDNA into the pSBETa vector for high-level expression, the pGAG5 insert was amplified; made in house; host or cells: E. coli XL1-Blue/pGAG5 or E. coli BL21(DE3)/pSBAG5
T2 sequence (O64405 1-593): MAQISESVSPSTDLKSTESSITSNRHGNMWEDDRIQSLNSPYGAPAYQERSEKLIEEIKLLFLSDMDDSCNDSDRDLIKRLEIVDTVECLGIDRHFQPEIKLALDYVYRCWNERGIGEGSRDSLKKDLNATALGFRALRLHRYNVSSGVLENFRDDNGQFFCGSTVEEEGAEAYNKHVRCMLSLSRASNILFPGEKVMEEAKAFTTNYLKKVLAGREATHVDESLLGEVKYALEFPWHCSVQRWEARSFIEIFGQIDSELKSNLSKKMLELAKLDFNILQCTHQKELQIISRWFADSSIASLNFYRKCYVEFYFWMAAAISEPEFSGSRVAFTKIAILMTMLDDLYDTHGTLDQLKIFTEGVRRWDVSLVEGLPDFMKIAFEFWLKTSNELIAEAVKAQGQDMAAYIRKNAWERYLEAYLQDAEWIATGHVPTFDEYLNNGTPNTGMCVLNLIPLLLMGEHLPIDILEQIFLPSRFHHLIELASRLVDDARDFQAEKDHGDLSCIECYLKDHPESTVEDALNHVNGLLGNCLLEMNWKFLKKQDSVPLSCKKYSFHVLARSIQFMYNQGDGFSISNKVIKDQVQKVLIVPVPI
Method: as §1, §2
Product Profile of Recombinant γ-Humulene Synthase (SEQ ID No:24) In Vitro.

| SMILES | sesquiterpene products of γ-humulene synthase, % [%] |
| --- | --- |
| CC1=CC[C@H]2[C@H]3[C@@H]1[C@]2(C)CC[C@H]3C(C)C [α-Copaene] | 0.1 |
| C=CC(=C)CC/C=C(\C)CCC=C(C)C [E-β-Farnesene] | 1.3 |
| CC1=C[C@H]2C(=C(C)CCCC2(C)C)CC1 [β-Himachalene] | 7.2 |
| CC(C)=C1C/C=C(\C)CC/C=C(\C)CC1 [Z-E-Germacrene B (tent.), Z,E-Germacrene B] | 0.1 |
| CC1=CC[C@@]23[C@@H]([C@@H]12)[C@H](C(C)C)CC[C@H]3C [α-Cubebene] | 0.1 |
| C=C1CCC2C3C(C(C)C)CCC2(C)C13 (stereo not drawn) [β-Ylangene] | 0.3 |
| CC(C)=CCC/C(C)=C1/CC=C(C)CC1 [γ-Bisabolene] | 1.9 |
| CC1=C[C@H]2[C@@H](CC1)C(C)=CCCC2(C)C [γ-Himachalene] | 5.8 |
| C=C1CCCC2(C)CCC(C(C)C)=CC12 (stereo not drawn) [Sibirene] | 15.1 |
| CC1=CC2C(CC1)C(C)=CCC2C(C)C (stereo not drawn) [α-Amorphene] | 0.5 |
| CC1=CC[C@@H]2[C@@H]3[C@H]1[C@@]2(C)CCCC3(C)C [α-Longipinene] | 3.4 |
| CC1=CC[C@@H]2[C@H]3[C@H](C(C)C)CC[C@]2(C)[C@@H]13 [α-Ylangene] | 2.7 |
| C=C1CCCC(C)(C)[C@H]2C=C(C)CC[C@@H]12 [α-Himachalene] | 4.8 |
| C=C1[C@H]2CC[C@@H]3[C@H]2C(C)(C)CCC[C@]13C [Longifolene] | 11.8 |
| CC1=C[C@H]2C(=C(C)CC[C@H]2C(C)C)CC1 [δ-Amorphene] | 0.5 |
| C=C1CCC2C3C1C2(C)CCCC3(C)C (stereo not drawn) [β-Longipinene] | 1.5 |
| CC1CCC=C2CCC3C(C3(C)C)C21C (stereo not drawn) [β-Gurjunene] | 2.0 |
| CC1=CCCC(C)=CCCC(C)=CCC1 [1,5,9-trimethylcyclododeca-1,5,9-triene (tent. 2 isomers), 1,5,9-trimethylcyclododeca-1,5,9-triene] | 0.2 |
| CC(C)C1CCC2(C)C3CC4C(C13)C42C (stereo not drawn) [Cyclosativene] | <0.1 |
| C=C(CCC=C(C)C)[C@@H]1CC=C(C)CC1 [β-Bisabolene] | 3.9 |
| C=C1[C@@H]2CC[C@H]3[C@@H]2[C@@H](C(C)C)CC[C@@]13C [Sativene] | 3.1 |
| C=C1CC[C@@]23[C@@H]([C@@H]12)[C@H](C(C)C)CC[C@H]3C [β-Cubebene] | 0.1 |
| CC(C)=CC/C=C(/C)C1CC=C(C)CC1 (stereo not drawn) [E-α-Bisabolene] | 0.9 |
| CC1(C)CCC[C@@]2(C)[C@@H]3CC4C([C@@H]31)C42C [Longicyclene] | 0.2 |
| C=C1C=CC(C)(C)CCCC(C)=CCC1 [γ-Humulene] | 28.6 |

— patent US6451576B1, “Sesquiterpene synthases from grand fir (Abies grandis), and methods of use” (Washington State University Research Foundation, priority 1998, dated 2002)
